Reference: US8865623B2, “Herbicidally active cyclic diones and derivatives thereof, processes for their preparation, compositions, and method of controlling weeds” (Syngenta Limited, priority 2009, dated 2014)

Experiments:
Type in all cases: in vivo
[1] = test system: Echinochloa crus-galli (ECHCG); assay: Post-emergence herbicidal activity, glasshouse pot test; settings: Echinochloa crus-galli, 312 h, rate 250 g/ha, evaluated after 13 days, read-out: Post-emergence activity ECHCG (100=total damage to plant; 0=no damage to plant)
How it was run: (§1)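 Test species are sown in pots of standard soil and sprayed either one day after sowing or after 8 days of cultivation, for pre- and post-emergence respectively. Plants grow in a controlled glasshouse, watered twice daily, and damage is assessed at 13 days, 0 to 100.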

[2] = test system: Alopecurus myosuroides (ALOMY); assay: as above; settings: Alopecurus myosuroides, 312 h, rate 250 g/ha, evaluated after 13 days, read-out: Post-emergence activity ALOMY (100=total damage to plant; 0=no damage to plant)
How it was run: as §1

Lolium perenne (LOLPE) [3] = assay: as above; settings: Lolium perenne, 312 h, rate 250 g/ha, evaluated after 13 days, read-out: Post-emergence activity LOLPE (100=total damage to plant; 0=no damage to plant)
How it was run: as §1

Avena fatua (AVEFA) [4] = assay: as above; settings: Avena fatua, 312 h, rate 250 g/ha, evaluated after 13 days, read-out: Post-emergence activity AVEFA (100=total damage to plant; 0=no damage to plant)
How it was run: as §1

[5] = test system: Echinochloa crus-galli (ECHCG); assay: Pre-emergence herbicidal activity, glasshouse pot test; settings: Echinochloa crus-galli, 312 h, Rate 250 g/ha, evaluated after 13 days, read-out: Pre-emergence activity ECHCG (100=total damage to plant; 0=no damage to plant)
How it was run: as §1

[6] = test system: Alopecurus myosuroides (ALOMY); assay: as above; settings: Alopecurus myosuroides, 312 h, Rate 250 g/ha, evaluated after 13 days, read-out: Pre-emergence activity ALOMY (100=total damage to plant; 0=no damage to plant)
How it was run: as §1

Lolium perenne (LOLPE) [7] = assay: as above; settings: Lolium perenne, 312 h, Rate 250 g/ha, evaluated after 13 days, read-out: Pre-emergence activity LOLPE (100=total damage to plant; 0=no damage to plant)
How it was run: as §1

Avena fatua (AVEFA) [8] = assay: as above; settings: Avena fatua, 312 h, Rate 250 g/ha, evaluated after 13 days, read-out: Pre-emergence activity AVEFA (100=total damage to plant; 0=no damage to plant)
How it was run: as §1

SMILES | pest or weed control at 250 g/ha ([1]; glasshouse) [%] | pest or weed control at 250 g/ha ([2]; glasshouse) [%] | pest or weed control at 250 g/ha (Lolium perenne (LOLPE) [3]; glasshouse) [%] | pest or weed control at 250 g/ha (Avena fatua (AVEFA) [4]; glasshouse) [%] | pest or weed control at 250 g/ha ([5]; pre-emergence spray) [%] | pest or weed control at 250 g/ha ([6]; pre-emergence spray) [%] | pest or weed control at 250 g/ha (Lolium perenne (LOLPE) [7]; pre-emergence spray) [%] | pest or weed control at 250 g/ha (Avena fatua (AVEFA) [8]; pre-emergence spray) [%] | pest or weed control at 250 g/ha [1] [%] | pest or weed control at 250 g/ha [2] [%] | pest or weed control at 250 g/ha (Lolium perenne (LOLPE) [3]) [%] | pest or weed control at 250 g/ha (Avena fatua (AVEFA) [4]) [%] | pest or weed control at 250 g/ha ([5]; pre-emergence) [%] | pest or weed control at 250 g/ha ([6]; pre-emergence) [%] | pest or weed control at 250 g/ha (Lolium perenne (LOLPE) [7]; pre-emergence) [%] | pest or weed control at 250 g/ha (Avena fatua (AVEFA) [8]; pre-emergence) [%]
CCc1ccc(Oc2ccc(C#N)c(Cl)c2)cc1C1=C(O)[C@@H]2CC[C@](C)(C1=O)C2(C)C [Example A-313] | 100 | 90 | 80 | 90 | 100 | 80 | 100 | 70 |  |  |  |  |  |  |  | 
CCc1ccc(Oc2ccc(C(F)(F)F)c(Cl)c2)cc1C1=C(O)CC(C)(C)CC1=O [Example A-283] | 90 | 80 | 90 | 90 | 90 | 70 | 60 | 10 |  |  |  |  |  |  |  | 
CCc1ccc(Oc2ncc(I)cc2Cl)cc1C1=C(O)C(C)(C)OC(C)(C)C1=O [Example A-157] | 100 | 90 | 90 | 100 | 80 | 40 | 50 | 30 |  |  |  |  |  |  |  | 
CCc1ccc(Oc2ccc([N+](=O)[O-])c(C#N)c2)cc1C1=C(O)C(C)(C)OC(C)(C)C1=O [Example A-196] | 20 | 0 | 10 | 0 | 0 | 0 | 0 | 0 |  |  |  |  |  |  |  | 
CCc1ccc(Oc2ccc(Cl)cc2Cl)cc1C1=C(O)[C@@H]2CC[C@](C)(C1=O)C2(C)C (single isomer, unassigned) [Example A-94] | 40 | 10 | 20 | 0 | 90 | 40 | 100 | 20 |  |  |  |  |  |  |  | 
CCc1ccc(Oc2ccc3cc(Br)ccc3n2)cc1C1=C(O)C(C)(C)OC(C)(C)C1=O [Example A-256] | 90 | 90 | 90 | 80 | 80 | 50 | 80 | 20 |  |  |  |  |  |  |  | 
CC1(C)OC(C)(C)C(O)=C(c2cc(Oc3ccc(OC(F)(F)F)cc3)ccc2C2CC2)C1=O [Example A-356] |  |  |  |  |  |  |  |  | 100 | 100 | 100 | 100 | 100 | 90 | 100 | 70
CCc1ccc(Oc2cnc3ccc(Br)cc3n2)cc1C1=C(O)CC2(CCOCC2)CC1=O [Example A-305] | 100 | 100 | 100 | 100 | 100 | 80 | 90 | 60 |  |  |  |  |  |  |  | 
CCc1ccc(Oc2nc(F)c(F)cc2F)cc1C1=C(O)C(C)(C)OC(C)(C)C1=O [Example A-167] | 100 | 60 | 50 | 40 | 100 | 30 | 30 | 10 |  |  |  |  |  |  |  | 
CCc1ccc(Oc2cnc3ccc(Br)cc3n2)cc1C1=C(O)C(C)(C)OC(C)(C)C1=O [Example A-104] | 100 | 90 | 90 | 80 | 100 | 90 | 100 | 30 |  |  |  |  |  |  |  | 
CCc1ccc(Oc2ccc(C#N)cc2Cl)cc1C1=C(O)C(C)(C)OC(C)(C)C1=O [Example A-73] | 100 | 90 | 70 | 40 | 100 | 90 | 80 | 80 |  |  |  |  |  |  |  | 
CCc1ccc(Oc2ccc(Cl)cc2Cl)cc1C1=C(O)CC2(CCOCC2)CC1=O [Example A-190] | 100 | 80 | 90 | 90 | 80 | 30 | 50 | 30 |  |  |  |  |  |  |  | 
CCc1ccc(Oc2ccc(Cl)cc2[N+](=O)[O-])cc1C1=C(O)C(C)(C)OC(C)(C)C1=O [Example A-226] | 100 | 60 | 60 | 60 | 60 | 0 | 30 | 10 |  |  |  |  |  |  |  | 
CCc1ccc(Oc2ccc([N+](=O)[O-])cc2C(F)(F)F)cc1C1=C(O)CC2(CCOCC2)CC1=O [Example A-309] | 100 | 50 | 50 | 70 | 70 | 40 | 20 | 0 |  |  |  |  |  |  |  | 
CCc1ccc(Oc2ncc(C(F)(F)F)cc2F)cc1C1=C(O)C(C)(C)OC(C)(C)C1=O [Example A-62] | 100 | 100 | 100 | 100 | 100 | 100 | 100 | 100 |  |  |  |  |  |  |  | 
CCc1ccc(Oc2nc3ccccc3s2)cc1C1=C(O)C(C)(C)OC(C)(C)C1=O [Example A-105] | 90 | 90 | 90 | 10 | 100 | 70 | 100 | 10 |  |  |  |  |  |  |  | 
CCc1ccc(Oc2ccc(F)cc2F)cc1C1=C(O)C(C)(C)OC(C)(C)C1=O [Example A-14] | 100 | 0 | 40 | 10 | 0 | 0 | 0 | 0 |  |  |  |  |  |  |  | 
CCc1ccc(Oc2ccc(Br)cc2)cc1C1=C(O)[C@@H]2CC[C@](C)(C1=O)C2(C)C [Example A-234] | 100 | 80 | 80 | 90 | 100 | 70 | 90 | 40 |  |  |  |  |  |  |  | 
